{
  "source": "patent US7935485B2",
  "about": "“Genetic polymorphisms for identifying individuals at risk for drug-induced vestibular dysfunction” (University of Maryland College Park, priority 2007, dated 2011)",
  "molecules": {"B1": {"name": "BDNF: brain-derived neurotrophic factor, a neurotrophic factor (protein, UniProt P23560 19-247, looked up)", "Neurotrophic factor BDNF …": "APMKEANIRGQGGLAYPGVRTHGTLESVNGPKAGSRGLTSLADTFEHVIEELLDEDQKVRPNEENNKDADLYTSRVMLSSQVPLEPPLLFLLEEYKNYLDAANMSMRVRRHSDPARRGELSVCDSISEWVTAADKKTAVDMSGGTVTVLEKVPVSKGQLKQYFYETKCNPMGYTKEGCRGIDKRHWNSQCRTTQSYVRALTMDSKKRIGWRFIRIDTSCVCTLTIKRGR"}},
  "key": {"vestibular hair cell": {"system": "vestibular hair cell", "details": "by inhibiting NO and ROS production; cited from earlier work"}, "[1]": {"details": "cited from earlier work"}, "[2]": {"assay": "Case/control study, subject characteristics of cases with GM-induced vestibular dysfunction", "assay_type": "in vivo, human", "details": "attributed to GM therapy", "experimental": "Subjects: Subjects were recruited for participation in a case/control study. Cases were recruited from various vestibular dysfunction support groups through advertisements and direct mailings. Cases were included if they could document profound unilateral or bilateral vestibular loss due specifically to GM administration after the age of 18 yr. […] Normal vestibular function was determined with the use of a clinical balance function questionnaire and medical history information. There are no apparent sex or racial differences in susceptibility to GM-induced vestibular dysfunction, so no inclusion limitations were made on those parameters, although the vast majority of recruited subjects were white. Because allele frequencies for many polymorphisms differ by race and only 10 non-white subjects completed the study, all results are presented for the 263 white participants. Children have higher risk for GM-induced ototoxicity, so only individuals >18 yr. and who were >18 yr. at the time of GM therapy were included. All subjects provided written informed consent and all procedures were approved by the University of Maryland Institutional Review Board.\nProcedures: Potential subjects completed medical history and balance function questionnaires, and patients specifically provided medical record release authorizations. […]"}, "[3]": {"details": "in vivo; cited from earlier work"}, "[4]": {"details": "provided simultaneously with GM; cited from earlier work"}},
  "note": "Entries after “also recorded” stand apart in the source; their conditions may differ.",
  "data": [
    {"molecule": "O[C@@H]1CO[C@H]2[C@@H]1OC[C@@H]2O", "note": "[isosorbide]", "values": [
      {"measurement": "effect on GM-induced vestibular hair cell death", "setting": "vestibular hair cell", "result": "delay GM-induced vestibular hair cell death"}
    ]},
    {"molecule": "gentamicin [GM]", "values": [
      {"measurement": "vestibular dysfunction", "setting": "[1]; GM-treated patients (33), different patients than those with auditory dysfunction", "result": "three"},
      {"measurement": "auditory dysfunction", "setting": "[1]; GM-treated patients, number affected of 33", "result": "three of 33"},
      {"measurement": "Hearing complications, (%)", "setting": "[2]", "result": "(34%)"},
      {"measurement": "Renal complications, (%)", "setting": "[2]", "result": "(14%)"},
      {"measurement": "metabolism", "setting": "[3]", "result": "not metabolized, but simply excreted by the kidney; also recorded: not metabolized by the body"}
    ]},
    {"molecule": "B1", "values": [
      {"measurement": "effect on ototoxic damage", "setting": "[4]", "result": "limits ototoxic damage"}
    ]}
  ]
}
